According to patent US20240368664A1, “LIVE YEAST BIOSENSORS AND METHODS OF USE THEREOF” (priority 2021, published 2024):
No end group written: not given here.

Columns and labels:
[1] = test system: mutant SsSte2; type: cell-based, Scheffersomyces stipites
[2] = test system: SsSte2 mutants; type: cell-based, Scheffersomyces stipites

Sequence: KHWPQIAQFAPS [nucleocapsid epitope]
- EC50 [1]: ~10 µM
- biosensor signal compared to signal in the presence of water [2]: over twice as strong
